Data published in patent US20260007758A1, “SO[…]-2 RECEPTOR (SST2R) NON-PEPTIDE DRUG CONJUGATES AND USES THEREOF” (Crinetics Pharmaceuticals, Inc., priority 2024, published 2026).
Like-named read-outs stand apart in the source and are kept apart here.

How the values were obtained:
Type in all cases: cell-based
[1] = target: T1, human somatostatin receptor subtype 2 (Homo sapiens, UniProt P30874); assay: Functional assay for SSTR2 agonists (HTRF cAMP); settings: CHO-K1 cells stably expressing human SST2, NKH477-stimulated cAMP, 20 min at 37 C
T1 construct: expressed in transfected cells
T1 sequence (P30874 whole entry): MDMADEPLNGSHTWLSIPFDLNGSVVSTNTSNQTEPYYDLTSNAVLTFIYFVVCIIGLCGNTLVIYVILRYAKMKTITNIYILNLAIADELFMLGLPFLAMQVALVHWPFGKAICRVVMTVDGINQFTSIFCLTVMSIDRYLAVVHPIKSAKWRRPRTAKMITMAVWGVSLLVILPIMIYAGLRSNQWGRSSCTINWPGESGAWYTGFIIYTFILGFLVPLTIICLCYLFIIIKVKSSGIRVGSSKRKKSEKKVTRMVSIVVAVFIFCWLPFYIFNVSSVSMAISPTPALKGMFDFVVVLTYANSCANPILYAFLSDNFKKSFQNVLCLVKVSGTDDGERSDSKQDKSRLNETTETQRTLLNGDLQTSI
How it was run: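 Agonist activity read as fall in intracellular cAMP: HTRF 665/620 nm ratio regressed to a cAMP standard curve, EC50 fitted. Stable human SSTR2 CHO-K1 cells exposed 20 min at 37 °C to compound, final concentrations typically 0-10,000 nM.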

[2] = target: T2, SST2 (Homo sapiens, UniProt P30874); assay: PathHunter CHO-K1 SST2 Internalization Assay; settings: PathHunter CHO-K1 SST2 cells, 90 min at 37 C, luminescence
T2 construct: host or cells: PathHunter CHO-K1 SST2 cells
T2 sequence (P30874 whole entry): as above
How it was run: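 Four-parameter nonlinear fits of background-corrected luminescence (duplicate means) gave IC50s. NDCs were serially diluted 1:3 over 11 points from a 10 uM final top concentration and incubated 90 min at 37 C with human SST2 CHO-K1 cells plated 48 h earlier at 2500/well. Beta-Glo read-out developed 60 min at RT.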

[3] = test system: NCI-H524 human small cell lung cancer cells; assay: H524 assay: inhibition of cell proliferation (CellTiter Glo); settings: 2 h treatment, washout, additional 70 h incubation
How it was run: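 Proliferation was measured by CellTiter Glo 70 h after a washout that followed a 2 h pulse of NDC. Doses were an 11-point, two-fold dilution series from 1 uM. IC50 was fitted with a four-parameter model to luminescence-based % inhibition relative to control cells.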

## CC[C@H](C)[C@@H]([C@@H](CC(=O)N1CCC[C@H]1[C@H](OC)[C@@H](C)C(=O)N[C@H](C)[C@@H](O)c1ccccc1)OC)N(C)C(=O)[C@@H](NC(=O)[C@H](C(C)C)N(C)C(=O)OCc1ccc(NC(=O)[C@H](CCCNC(N)=O)NC(=O)[C@@H](NC(=O)[C@H](CCC(=O)O)NC(=O)CCOCCC(=O)NCCNc2ncc(-c3cc(C)cc(F)c3)c(N3CCC(N)CC3)c2-c2nc3ccc(Cl)cc3[nH]2)C(C)C)c(OC)c1)C(C)C [Compound 16]
[1]; read-out: hSST2 cAMP Avg EC50
  EC50: 0.083 nM
[2]; read-out: Internalization EC50
  EC50: 7.8 nM
[3]
  EC50: 160 nM

## CC[C@@H](C)[C@H]([C@H](CC(=O)N1CCC[C@@H]1[C@@H](OC)[C@H](C)C(=O)N[C@@H](C)[C@H](O)c1ccccc1)OC)N(C)C(=O)[C@H](NC(=O)[C@@H](C(C)C)N(C)C(=O)OCc1ccc(NC(=O)[C@@H](CCCNC(N)=O)NC(=O)[C@H](NC(=O)[C@@H](CCC(=O)O)NC(=O)CCOCCOCCNC(=O)CCc2cn(CCCC[C@H](NC(=O)CCOCCC(=O)NCCNc3ncc(-c4cc(C)cc(F)c4)c(N4CCC(N)CC4)c3-c3nc4ccc(Cl)cc4[nH]3)C(=O)NCCOCCOCCC(=O)N[C@@H](CCC(=O)O)C(=O)N[C@H](C(=O)N[C@@H](CCCNC(N)=O)C(=O)Nc3ccc(COC(=O)N(C)[C@H](C(=O)N[C@H](C(=O)N(C)[C@@H]([C@@H](C)CC)[C@@H](CC(=O)N4CCC[C@H]4[C@H](OC)[C@@H](C)C(=O)N[C@H](C)[C@@H](O)c4ccccc4)OC)C(C)C)C(C)C)cc3)C(C)C)nn2)C(C)C)cc1)C(C)C [Compound 245]
[1]; hSST2 cAMP Avg EC50 (nM)
  EC50: 11 nM
[2]; Internalization EC50 (nM)
  EC50: 440 nM
[3]
  EC50: 140 nM

## CC[C@H](C)[C@@H]([C@@H](CC(=O)N1CCC[C@H]1[C@H](OC)[C@@H](C)C(=O)N[C@H](C)[C@@H](O)c1ccccc1)OC)N(C)C(=O)[C@@H](NC(=O)[C@H](C(C)C)N(C)C(=O)OCc1ccc(NC(=O)[C@H](CCCNC(N)=O)NC(=O)[C@@H](NS(=O)(=O)C[C@H](C)NC(=O)CCOCCC(=O)NCCNc2ncc(-c3cc(C)cc(F)c3)c(N3CCC(N)CC3)c2-c2nc3ccc(Cl)cc3[nH]2)C(C)C)c(O[C@@H]2O[C@H](C(=O)N(C)CC(=O)O)[C@@H](O)[C@H](O)[C@H]2O)c1)C(C)C [Compound 220]
[1]; read-out: hSST2 cAMP Avg EC50
  EC50: 0.077 nM
[2]; read-out: Internalization EC50
  EC50: 3.1 nM
[3]
  EC50: 7.6 nM

## CC[C@H](C)[C@@H]([C@@H](CC(=O)N1CCC[C@H]1[C@H](OC)[C@@H](C)C(=O)N[C@H](C)[C@@H](O)c1ccccc1)OC)N(C)C(=O)[C@@H](NC(=O)[C@H](C(C)C)N(C)C(=O)OCc1ccc(NC(=O)[C@H](CCCNC(N)=O)NC(=O)C2(NC(=O)CCOCCC(=O)NCCNc3ncc(-c4cc(C)cc(F)c4)c(N4CCC(N)CC4)c3-c3nc4ccc(Cl)cc4[nH]3)CCC2)c(O[C@H]2O[C@H](C(=O)NCC(=O)O)[C@@H](O)[C@H](O)[C@H]2O)c1)C(C)C [Compound 210]
[1]; read-out: hSST2 cAMP Avg EC50
  EC50: 0.051 nM
[2]; read-out: Internalization EC50
  EC50: 2.8 nM
[3]
  EC50: 2300 nM

## CC[C@H](C)[C@@H]([C@@H](CC(=O)N1CCC[C@H]1[C@H](OC)[C@@H](C)C(=O)N[C@H](C)[C@@H](O)c1ccccc1)OC)N(C)C(=O)[C@@H](NC(=O)[C@H](C(C)C)N(C)C(=O)OCc1ccc(NC(=O)[C@H](CCCNC(N)=O)NC(=O)[C@@H](NC(=O)c2cc(NCCCCCC(=O)N(C)CC(=O)NCCNc3ncc(-c4cc(C)cc(F)c4)c(N4CCC(N)CC4)c3-c3nc4ccc(F)cc4[nH]3)cc(C(=O)NCC(=O)O)c2)C(C)C)cc1)C(C)C [Compound 168]
[1]; read-out: hSST2 cAMP Avg EC50
  EC50: 0.17 nM
[2]; read-out: Internalization EC50
  EC50: 5.8 nM
[3]
  EC50: 34 nM

## CC[C@H](C)[C@@H]([C@@H](CC(=O)N1CCC[C@H]1[C@H](OC)[C@@H](C)C(=O)N[C@H](C)[C@@H](O)c1ccccc1)OC)N(C)C(=O)[C@@H](NC(=O)[C@H](C(C)C)N(C)C(=O)OCc1ccc(NC(=O)[C@H](C)NC(=O)[C@@H](NC(=O)CCOCCC(=O)N(C)CC(=O)NCCNc2ncc(-c3cc(C)cc(F)c3)c(N3CCC(N)CC3)c2-c2nc3ccc(Cl)cc3[nH]2)C(C)C)c(O[C@@H]2O[C@H](C(=O)NCS(=O)(=O)O)[C@@H](O)[C@H](O)[C@H]2O)c1)C(C)C [Compound 50]
[1]; read-out: hSST2 cAMP Avg EC50
  EC50: 0.13 nM
[2]; read-out: Internalization EC50
  EC50: 6.8 nM
[3]
  EC50: 36 nM

## CC[C@H](C)[C@@H]([C@@H](CC(=O)N1CCC[C@H]1[C@H](OC)[C@@H](C)C(=O)N[C@H](C)[C@@H](O)c1ccccc1)OC)N(C)C(=O)[C@@H](NC(=O)[C@H](C(C)C)N(C)C(=O)OCc1ccc(NC(=O)[C@H](CCCNC(N)=O)NC(=O)[C@@H](NS(=O)(=O)C[C@H](C)NC(=O)CCOCCC(=O)NCCNc2ncc(-c3cc(C)cc(F)c3)c(N3CCC(N)CC3)c2-c2nc3ccc(Cl)cc3[nH]2)C(C)C)c(O[C@@H]2O[C@H](C(=O)NCC(=O)O)[C@@H](O)[C@H](O)[C@H]2O)c1)C(C)C [Compound 214]
[1]; read-out: hSST2 cAMP Avg EC50
  EC50: 0.11 nM
[2]; read-out: Internalization EC50
  EC50: 4 nM
[3]
  EC50: 8.9 nM

## CC[C@H](C)[C@@H]([C@@H](CC(=O)N1CCC[C@H]1[C@H](OC)[C@@H](C)C(=O)N[C@H](C)[C@@H](O)c1ccccc1)OC)N(C)C(=O)[C@@H](NC(=O)[C@H](C(C)C)N(C)C(=O)OCc1ccc(NC(=O)[C@H](CCCNC(N)=O)NC(=O)[C@@H](NC(=O)CCOCCC(=O)NCCNc2ncc(-c3cc(C)cc(F)c3)c(N3CCC(N)CC3)c2-c2nc3ccc(Cl)cc3[nH]2)C(C)C)c(O[C@@H]2O[C@H](C(=O)N(C)CC(=O)O)[C@@H](O)[C@H](O)[C@H]2O)c1)C(C)C [Compound 216]
[1]; read-out: hSST2 cAMP Avg EC50
  EC50: 0.076 nM
[2]; read-out: Internalization EC50
  EC50: 3 nM
[3]
  EC50: 8.6 nM

## CC[C@H](C)[C@@H]([C@@H](CC(=O)N1CCC[C@H]1[C@H](OC)[C@@H](C)C(=O)N[C@H](C)[C@@H](O)c1ccccc1)OC)N(C)C(=O)[C@@H](NC(=O)[C@H](C(C)C)N(C)C(=O)OCc1ccc(NC(=O)[C@H](CCCNC(N)=O)NC(=O)[C@@H](NC(=O)c2cc(NCCOCCC(=O)N(C)CC(=O)NCCNc3ncc(-c4cc(C)cc(F)c4)c(N4CCC(N)CC4)c3-c3nc4ccc(Cl)cc4[nH]3)cc(C(=O)NCC(=O)O)c2)C(C)C)cc1)C(C)C [Compound 162]
[1]; read-out: hSST2 cAMP Avg EC50
  EC50: 0.27 nM
[2]; read-out: Internalization EC50
  EC50: 4.7 nM
[3]
  EC50: 60 nM

## CC[C@H](C)[C@@H]([C@@H](CC(=O)N1CCC[C@H]1[C@H](OC)[C@@H](C)C(=O)N[C@H](C)[C@@H](O)c1ccccc1)OC)N(C)C(=O)[C@@H](NC(=O)[C@H](C(C)C)N(C)C(=O)OCc1ccc(NC(=O)[C@H](CCCNC(N)=O)NC(=O)[C@@H](NC(=O)c2cc(NCCOCCC(=O)NCCNc3ncc(-c4cc(C)cc(F)c4)c(N4CCC(N)CC4)c3-c3nc4ccc(Cl)cc4[nH]3)cc(C(=O)NCC(=O)O)c2)C(C)C)cc1)C(C)C [Compound 185]
[1]; read-out: hSST2 cAMP Avg EC50
  EC50: 0.19 nM
[2]; read-out: Internalization EC50
  EC50: 2.6 nM
[3]
  EC50: 1100 nM

## CC[C@H](C)[C@@H]([C@@H](CC(=O)N1CCC[C@H]1[C@H](OC)[C@@H](C)C(=O)N[C@H](C)[C@@H](O)c1ccccc1)OC)N(C)C(=O)[C@@H](NC(=O)[C@H](C(C)C)N(C)C(=O)OCc1ccc(NC(=O)[C@H](CCCNC(N)=O)NC(=O)[C@@H](NC(=O)CCOCCC(=O)NCCNc2ncc(-c3cc(C)cc(F)c3)c(N3CCC(N)CC3)c2-c2nc3ccc(Cl)cc3[nH]2)C(C)C)c(O[C@@H]2O[C@H](C(=O)NCCNC(=O)CCCCCO[PH](=O)OC3CCC(c4ccccc4)(c4ccccc4)CC3)[C@@H](O)[C@H](O)[C@H]2O)c1)C(C)C (stereo partly drawn) [Compound 233]
[1]; read-out: hSST2 cAMP Avg EC50
  EC50: 1 nM
[2]; read-out: Internalization EC50
  EC50: 18 nM
[3]
  EC50: 500 nM

## CC[C@H](C)[C@@H]([C@@H](CC(=O)N1CCC[C@H]1[C@H](OC)[C@@H](C)C(=O)N[C@H](C)[C@@H](O)c1ccccc1)OC)N(C)C(=O)[C@@H](NC(=O)[C@H](C(C)C)N(C)C(=O)OCc1ccc(NC(=O)[C@H](CCCNC(N)=O)NC(=O)[C@@H](NC(=O)CCOCCOCCOCCOCCNc2ncc(C(=O)NCCNc3ncc(-c4cc(C)cc(F)c4)c(N4CCC(N)CC4)c3-c3nc4ccc(Cl)cc4[nH]3)cn2)C(C)C)cc1)C(C)C [Compound 180]
[1]; read-out: hSST2 cAMP Avg EC50
  EC50: 0.52 nM
[2]; read-out: Internalization EC50
  EC50: 16 nM
[3]
  EC50: 680 nM
